Measurements as given in publication PMC5503262, “Solution conformations of Zika NS2B-NS3pro and its inhibition by natural products from edible plants” (PLoS ONE, 2017).
Where “and” joins values, the source holds several entries; their conditions need not be identical. Identical values can stand only once. Entries after “also recorded” stand apart in the source; their conditions may differ. Like-named read-outs stand apart in the source and are kept apart here.

What was measured:
[1] = target: T1, Zika NS2B-NS3pro (unlinked complex) (Zika virus, UniProt A0A024B7W1); assay: Inhibition of unlinked Zika NS2B-NS3pro, fluorogenic substrate Bz-nKRR-AMC; format: biochemical; details: for inhibitory activity (in words): compound concentration up to 500 μM; for Inhibition at 500 μM: initial screening, compound 500 μM, protease 50 nM; for Inhibition at 500 μM / IC50: Bz-nKRR-AMC 250 μM
T1 construct: DNA fragments encoding the isolated NS3 (14–185) and NS2B (48–100) with the transmembrane regions removed; His-tag (cleaved yes); made in house; host or cells: Escherichia coli BL21 (DE3) Star
T1 sequence (A0A024B7W1 1420-1472): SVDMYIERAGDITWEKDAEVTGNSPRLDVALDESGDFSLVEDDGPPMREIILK
T1 sequence (A0A024B7W1 1516-1687): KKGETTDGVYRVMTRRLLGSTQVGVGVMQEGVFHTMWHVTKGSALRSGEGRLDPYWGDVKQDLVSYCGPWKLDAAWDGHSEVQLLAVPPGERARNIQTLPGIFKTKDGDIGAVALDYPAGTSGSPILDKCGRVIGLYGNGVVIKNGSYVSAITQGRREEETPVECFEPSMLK
Method: Due to the urgency to fight ZIKV infection, we attempted to screen the inhibitors of Zika NS2B-NS3pro from natural products rich in edible plants. To better reflect the situation in vivo, here we selected the unlinked Zika NS2B-NS3pro complex for screening. However as most natural products are largely insoluble in aqueous buffers, we have assessed effects of DMSO and glycerol on the conformations (Fig 1E and 1F) as well as on catalytic parameters (Table 1). Consequently, 50 mM Tris buffer at pH 8.5 + 20% Glycerol was utilized as the screening buffer as it could dissolve all natural products in the present study but has no significant effect on the conformation of Zika NS2B-NS3pro (Fig 1F).
To allow comparison with the NS2B-NS3pro complexes of four Dengue serotypes (17), we selected three fluorophore-tagged substrates previously used (17): namely Bz-Nle-Lys-Arg-Arg-AMC, Boc-Gly-Arg-Arg-AMC and Boc-Gly-Lys-Arg-AMC (Bachem AG, Bubendorf), which were dissolved in dimethyl sulfoxide for preparing stock solutions (100 mM). All enzymatic experiments were performed in triplicate and data are presented as mean ± SD, while IC50, Km and Ki were obtained by fitting with GraphPad Prism 7.0 [61].
All natural products were purchased from Sigma-Aldrich, which are all HPLC purified. After optimization of buffer conditions, here, we selected 50 mM Tris-HCl buffer at pH 8.5 in the presence of 20% glycerol which could dissolve all natural products. Briefly, for the initial screening, the Zika protease at 50 nM was preincubated for 30 min with different compounds at final concentrations of 5 and 500 μM dissolved in 1 μl DMSO, followed by adding Bz-nKRR-AMC to 250 μM to initiate reaction. Only the compounds showing significant inhibitions at both concentrations were subjected to further determination of IC50 and Ki.
For Ki determination, the assay was performed with different final concentrations of the inhibitors and substrate. Briefly, the Zika protease at 50 nM was preincubated with the inhibitor at different concentrations for 30 min at 37°C. Subsequently, the reaction was initiated by addition of the corresponding concentration series of the substrate. All measurements were performed in triplicate and data are presented as mean ± SD. The Ki was obtained by fitting in the non-competitive inhibition mode with GraphPad Prism 7.0, with an equation: Vmaxinh = Vmax/(1+I/Ki), while I is the concentration of inhibitor [61].

Dengue-2 NS2B-NS3pro = target: Dengue-2 NS2B-NS3pro; design: method as in PMID 25564380; details: allosteric inhibition, previously characterized; cited from earlier work
linked Zika NS2B-NS3pro = details: linked enzyme, assay buffer pH 7; cited from earlier work
[2] = 50 mM Tris-HCl pH 8.5 + 20% glycerol
[3] = non-competitive fit, protease 50 nM preincubated 30 min at 37°C, 50 mM Tris-HCl pH 8.5 + 20% glycerol, mean ± SD, triplicate, read-out: Ki
[4] = protease 50 nM preincubated 30 min at 37°C, 50 mM Tris-HCl pH 8.5 + 20% glycerol, mean ± SD, triplicate, read-out: IC50
[5] = IC50, protease 50 nM preincubated 30 min at 37°C, 50 mM Tris-HCl pH 8.5 + 20% glycerol, mean ± SD, triplicate
[6] = Ki, non-competitive fit, protease 50 nM preincubated 30 min at 37°C, 50 mM Tris-HCl pH 8.5 + 20% glycerol, mean ± SD, triplicate

Row | Compound | inhibitory activity (in words) [1] | Inhibition at 500 μM [1, 2] | Ki [1, 3] | IC50 [1, 4] | IC50 [1, 5] | other results
1 | Oc1cc(O)c2c(c1)O[C@H](c1ccc(O)c(O)c1)[C@@H](O)C2 [Catechin] | inactive | No | – | – | – | inhibitory activity (in words) ([1]; listed as Catechine): no inhibitory activity was detected
2 | O=c1c(O)c(-c2ccc(O)c(O)c2)oc2cc(O)cc(O)c12 [Quercetin] | – | Yes | 1.12 µM and 1.1 µM | 2.42 µM and 2.4 µM | – | Ki (Dengue-2 NS2B-NS3pro): 20.7 µM
3 | O=c1c(O)c(-c2cc(O)c(O)c(O)c2)oc2cc(O)cc(O)c12 [Myricetin] | – | Yes | 0.8 ± 0.1 µM | 1.3 ± 0.1 µM | 1.26 µM | Ki (Dengue-2 NS2B-NS3pro): 4.7 µM; Ki (linked Zika NS2B-NS3pro): 8.9 µM; Ki ([1]; Ki, non-competitive mode, unlinked enzyme, pH 8.5): 0.77 µM
4 | O=c1cc(-c2ccc(O)c(O)c2)oc2cc(O)cc(O)c12 [Luteolin] | – | Yes | 1.4 ± 0.1 µM | 2.7 ± 0.3 µM | – | –
5 | COc1cc(/C=C/C(=O)CC(=O)/C=C/c2ccc(O)c(OC)c2)ccc1O [Curcumin] | – | Yes | 2.61 µM and 2.6 µM | 3.45 µM and 3.5 µM | – | –
6 | O=c1c(-c2ccc(O)cc2)coc2cc(O)ccc12 [Daidzein] | no inhibitory activity was detected; also recorded: inactive | No | – | – | – | –
7 | Oc1ccc(/C=C/c2cc(O)cc(O)c2)cc1 [Resveratrol] | no inhibitory effect was detected; also recorded: no detectable inhibitory activity | No | – | – | – | –
8 | COc1cc(-c2oc3cc(O)cc(O)c3c(=O)c2O)ccc1O [Isorhamnetin] | – | Yes | – | – | 15.5 µM | Ki [1, 6]: 6.22 µM and 6.2 µM
9 | O=c1cc(-c2ccc(O)cc2)oc2cc(O)cc(O)c12 [Apigenin] | – | Yes | – | 56.3 µM | 56.3 ± 0.9 µM | Ki [1, 6]: 34 µM
